Laboratory results from patent US9371265B2, “Compositions and methods related to inhibitors of JAK kinase” (EP PHARMA, INC., priority 2012, dated 2016).

Key:
[1] = molecular target: MKNK2 (Homo sapiens, UniProt Q9HBH9); experiment: Kinase panel: MKNK2; format: biochemical; conditions: 10 μM EP009
Method: (§1) Achieving JAK3 selectivity remains a significant challenge in the development of new small molecules for the treatment of cancer and immune-derived diseases. As such, the inventors employed cell-based screening assays of small-molecule libraries based upon the chemical scaffold of the established JAK3 inhibitor NC1153 (Stepkowski et al., J Immunol. (2005), 175(7):4236-4246) EP009 (FIG. 2A) was selected as a lead compound due to improved intrinsic stability (>95% purity in various solvents at 37° C. for 24 hours; FIG. 3) and high-degree of JAK3 selectivity. To test JAK3 versus JAK2 specificity of EP009, the IL-2/JAK3-dependent Kit225, and IL-3/JAK2-dependent BaF/3 cell lines were used. Kit225 and BaF/3 cells growing in the presence of IL-2 or IL-3, respectively, were treated with ascending concentrations of EP009 for 12 hours and cellular JAK3 and JAK2 tyrosine phosphorylation levels detected by Western blot analysis (FIGS. 2B and 2C). Following densitometric analysis, EP009 was determined to dose-dependently reduce IL-2-mediated JAK3 tyrosine phosphorylation with a cellular 50% inhibitory concentration (IC50) between 10 and 20 μM (FIG. 2B). […] To globally evaluate specificity, the inhibitory activity of EP009 was measured against a panel of protein kinases distributed throughout the kinome using the scanEDGE profiling service (KINOMEscan). […]

[2] = molecular target: CDK11 (Homo sapiens, UniProt Q9BWU1); experiment: Kinase panel: CDK11; format: biochemical; conditions: 10 μM EP009
Method: as §1

[3] = molecular target: MAPKAPK2 (Homo sapiens, UniProt P49137); experiment: Kinase panel: MAPKAPK2; format: biochemical; conditions: 10 μM EP009
Method: as §1

[4] = molecular target: PIM2 (Homo sapiens, UniProt Q9P1W9); experiment: Kinase panel: PIM2; format: biochemical; conditions: 10 μM EP009
Method: as §1

[5] = molecular target: PLK4 (Homo sapiens, UniProt O00444); experiment: Kinase panel: PLK4; format: biochemical; conditions: 10 μM EP009
Method: as §1

[6] = molecular target: IKK-beta (Homo sapiens, UniProt O14920); experiment: Kinase panel: IKK-beta; format: biochemical; conditions: 10 μM EP009
Method: as §1

[7] = molecular target: CDK2 (Homo sapiens, UniProt P24941); experiment: Kinase panel: CDK2; format: biochemical; conditions: 10 μM EP009
Method: as §1

[8] = molecular target: FAK (Homo sapiens, UniProt Q05397); experiment: Kinase panel: FAK; format: biochemical; conditions: 10 μM EP009
Method: as §1

[9] = molecular target: MKNK1 (Homo sapiens, UniProt Q9BUB5); experiment: Kinase panel: MKNK1; format: biochemical; conditions: 10 μM EP009
Method: as §1

[10] = molecular target: PDPK1 (Homo sapiens, UniProt O15530); experiment: Kinase panel: PDPK1; format: biochemical; conditions: 10 μM EP009
Method: as §1

[11] = system: normal human naïve PBMCs; experiment: Naive PBMC viability (MTS); format: cell-based; conditions: 72 hours, concentrations giving complete loss of JAK3-dependent cell viability (0-10 μM)
Method: FIGS. 2A-2F. Selective inhibition of JAK3 by EP009 results in loss of JAK3-dependent tumor cell line viability with no detectable off-target effects in key cell types. (A) Chemical structure of EP009 (M.W. 224.34). (B) Kit225 or (C) BaF/3 cells cultured in the presence of IL-2 or IL-3, respectively, were treated with vehicle (PBS; lane a) or increasing amounts of EP009 (0-50 μM; lanes b-h) for 12 hours. Cells were then lysed, clarified, and immunoprecipitated (IP) with anti-JAK3 (α-JAK3) or anti-JAK2 (α-JAK2), and subjected to Western blot (WB) analysis with anti-phosphotyrosine (α-pY). Blots were stripped and reprobed with corresponding antibody to verify equivalent protein loading. […] (E) Kit225 or BaF/3 cells were cultured with increasing amounts of EP009 (0-10 μM) for 72 hours and cell viability measured with the MTS tetrazolium salt assay. Values represent mean absorbance (OD490-OD650 nm) normalized to vehicle (PBS) treated control cells, while error bars represent the standard deviation (n=3). (F) HEK293, HEPG2, or naïve primary human PBMCs were cultured with increasing amounts of EP009 (0-10 μM) for 72 hours and cell viability measured with the MTS tetrazolium salt assay. Values represent mean absorbance (OD490-OD650 nm) normalized to vehicle (PBS) treated control cells, while error bars represent the standard deviation (n=3). […]

Chain of PLK4 (O00444 whole entry): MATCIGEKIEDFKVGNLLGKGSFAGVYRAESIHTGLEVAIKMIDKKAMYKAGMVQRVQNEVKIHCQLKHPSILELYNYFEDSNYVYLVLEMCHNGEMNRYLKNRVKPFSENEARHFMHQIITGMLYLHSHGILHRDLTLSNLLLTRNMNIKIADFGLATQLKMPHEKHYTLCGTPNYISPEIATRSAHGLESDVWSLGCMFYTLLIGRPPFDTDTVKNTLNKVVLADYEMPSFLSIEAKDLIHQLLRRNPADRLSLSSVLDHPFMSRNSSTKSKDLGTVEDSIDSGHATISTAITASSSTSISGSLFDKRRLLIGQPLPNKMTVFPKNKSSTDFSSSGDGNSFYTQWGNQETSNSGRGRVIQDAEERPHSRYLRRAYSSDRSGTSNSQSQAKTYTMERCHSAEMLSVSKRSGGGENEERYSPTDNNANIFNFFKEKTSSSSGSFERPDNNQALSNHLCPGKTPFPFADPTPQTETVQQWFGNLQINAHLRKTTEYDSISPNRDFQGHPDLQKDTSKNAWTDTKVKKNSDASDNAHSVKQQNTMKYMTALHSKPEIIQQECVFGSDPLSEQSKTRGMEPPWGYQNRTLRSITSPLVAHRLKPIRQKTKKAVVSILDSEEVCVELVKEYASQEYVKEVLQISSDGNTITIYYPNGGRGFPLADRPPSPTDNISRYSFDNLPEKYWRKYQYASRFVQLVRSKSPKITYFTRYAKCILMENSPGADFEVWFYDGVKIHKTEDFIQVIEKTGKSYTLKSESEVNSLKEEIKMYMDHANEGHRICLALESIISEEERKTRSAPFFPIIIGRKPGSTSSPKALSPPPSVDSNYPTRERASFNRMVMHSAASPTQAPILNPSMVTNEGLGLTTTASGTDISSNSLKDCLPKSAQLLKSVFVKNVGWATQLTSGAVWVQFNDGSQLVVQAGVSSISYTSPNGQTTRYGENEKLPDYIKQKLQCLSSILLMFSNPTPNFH
Chain of PDPK1 (O15530 whole entry): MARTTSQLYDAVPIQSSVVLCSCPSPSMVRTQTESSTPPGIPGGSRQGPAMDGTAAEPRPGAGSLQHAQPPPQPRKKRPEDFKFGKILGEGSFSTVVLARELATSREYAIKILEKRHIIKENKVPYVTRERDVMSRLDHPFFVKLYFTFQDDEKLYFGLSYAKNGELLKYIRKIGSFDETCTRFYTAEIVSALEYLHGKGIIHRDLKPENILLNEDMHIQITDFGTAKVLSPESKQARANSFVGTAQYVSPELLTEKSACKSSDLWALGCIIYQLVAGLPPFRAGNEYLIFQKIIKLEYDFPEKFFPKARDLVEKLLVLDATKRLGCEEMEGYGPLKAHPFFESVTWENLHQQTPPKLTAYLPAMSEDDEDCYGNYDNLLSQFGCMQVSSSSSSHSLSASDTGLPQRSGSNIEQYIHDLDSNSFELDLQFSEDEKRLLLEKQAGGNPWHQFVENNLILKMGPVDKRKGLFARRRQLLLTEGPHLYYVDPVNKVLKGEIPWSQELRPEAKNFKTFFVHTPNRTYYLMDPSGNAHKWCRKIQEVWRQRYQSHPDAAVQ
Chain of MKNK1 (Q9BUB5 whole entry): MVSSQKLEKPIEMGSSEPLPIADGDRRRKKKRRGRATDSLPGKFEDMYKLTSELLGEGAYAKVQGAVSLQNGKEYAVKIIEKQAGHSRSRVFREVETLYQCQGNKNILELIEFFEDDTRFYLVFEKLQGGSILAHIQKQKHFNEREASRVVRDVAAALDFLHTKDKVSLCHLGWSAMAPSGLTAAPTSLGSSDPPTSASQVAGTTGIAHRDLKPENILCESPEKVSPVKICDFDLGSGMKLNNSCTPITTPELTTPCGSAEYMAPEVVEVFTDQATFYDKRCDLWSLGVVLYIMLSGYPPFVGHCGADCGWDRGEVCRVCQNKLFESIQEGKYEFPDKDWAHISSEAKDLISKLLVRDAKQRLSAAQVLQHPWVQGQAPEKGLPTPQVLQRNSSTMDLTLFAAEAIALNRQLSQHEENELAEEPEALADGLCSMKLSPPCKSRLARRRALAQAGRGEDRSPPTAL
Chain of PIM2 (Q9P1W9 whole entry): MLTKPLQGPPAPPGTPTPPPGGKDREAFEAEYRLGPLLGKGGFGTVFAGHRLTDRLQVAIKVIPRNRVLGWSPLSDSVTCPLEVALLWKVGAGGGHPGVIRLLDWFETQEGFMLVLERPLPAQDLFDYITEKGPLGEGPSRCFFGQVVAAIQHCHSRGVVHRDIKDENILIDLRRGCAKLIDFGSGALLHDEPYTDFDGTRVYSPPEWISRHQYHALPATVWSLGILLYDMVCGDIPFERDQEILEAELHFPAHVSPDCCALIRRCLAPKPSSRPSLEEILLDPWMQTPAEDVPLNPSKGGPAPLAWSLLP
Chain of IKK-beta (O14920 whole entry): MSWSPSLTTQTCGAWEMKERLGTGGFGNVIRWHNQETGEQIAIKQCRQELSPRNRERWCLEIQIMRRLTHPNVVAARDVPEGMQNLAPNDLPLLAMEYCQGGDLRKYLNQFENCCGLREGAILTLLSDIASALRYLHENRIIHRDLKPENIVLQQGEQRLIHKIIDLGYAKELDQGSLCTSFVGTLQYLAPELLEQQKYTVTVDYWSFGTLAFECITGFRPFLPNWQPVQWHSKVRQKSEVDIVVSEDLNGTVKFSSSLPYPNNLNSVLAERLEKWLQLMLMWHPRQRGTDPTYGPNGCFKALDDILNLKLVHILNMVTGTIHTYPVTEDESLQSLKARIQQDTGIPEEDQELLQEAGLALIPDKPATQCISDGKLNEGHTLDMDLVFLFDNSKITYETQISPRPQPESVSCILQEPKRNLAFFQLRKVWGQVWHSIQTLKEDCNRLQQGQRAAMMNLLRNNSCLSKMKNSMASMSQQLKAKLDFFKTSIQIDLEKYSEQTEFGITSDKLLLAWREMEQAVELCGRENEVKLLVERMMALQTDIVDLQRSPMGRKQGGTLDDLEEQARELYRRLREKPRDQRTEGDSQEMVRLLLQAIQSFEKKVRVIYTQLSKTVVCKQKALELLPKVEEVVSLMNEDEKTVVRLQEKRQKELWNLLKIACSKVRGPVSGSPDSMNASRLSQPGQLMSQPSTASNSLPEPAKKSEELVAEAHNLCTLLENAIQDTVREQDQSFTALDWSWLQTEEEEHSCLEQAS
Chain of MKNK2 (Q9HBH9 whole entry): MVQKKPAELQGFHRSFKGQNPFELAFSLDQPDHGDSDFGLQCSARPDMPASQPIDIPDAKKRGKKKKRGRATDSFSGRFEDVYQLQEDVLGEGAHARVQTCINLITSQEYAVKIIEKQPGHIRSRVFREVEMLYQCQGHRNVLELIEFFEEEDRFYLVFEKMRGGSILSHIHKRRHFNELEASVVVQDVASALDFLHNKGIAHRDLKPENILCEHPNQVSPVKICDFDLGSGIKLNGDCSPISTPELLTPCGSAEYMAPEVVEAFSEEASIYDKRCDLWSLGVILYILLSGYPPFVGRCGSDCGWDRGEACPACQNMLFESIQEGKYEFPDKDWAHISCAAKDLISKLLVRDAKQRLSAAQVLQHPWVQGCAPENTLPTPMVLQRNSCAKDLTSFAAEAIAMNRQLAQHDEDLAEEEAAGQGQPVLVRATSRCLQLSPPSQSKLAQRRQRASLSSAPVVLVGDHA
Chain of FAK (Q05397 whole entry): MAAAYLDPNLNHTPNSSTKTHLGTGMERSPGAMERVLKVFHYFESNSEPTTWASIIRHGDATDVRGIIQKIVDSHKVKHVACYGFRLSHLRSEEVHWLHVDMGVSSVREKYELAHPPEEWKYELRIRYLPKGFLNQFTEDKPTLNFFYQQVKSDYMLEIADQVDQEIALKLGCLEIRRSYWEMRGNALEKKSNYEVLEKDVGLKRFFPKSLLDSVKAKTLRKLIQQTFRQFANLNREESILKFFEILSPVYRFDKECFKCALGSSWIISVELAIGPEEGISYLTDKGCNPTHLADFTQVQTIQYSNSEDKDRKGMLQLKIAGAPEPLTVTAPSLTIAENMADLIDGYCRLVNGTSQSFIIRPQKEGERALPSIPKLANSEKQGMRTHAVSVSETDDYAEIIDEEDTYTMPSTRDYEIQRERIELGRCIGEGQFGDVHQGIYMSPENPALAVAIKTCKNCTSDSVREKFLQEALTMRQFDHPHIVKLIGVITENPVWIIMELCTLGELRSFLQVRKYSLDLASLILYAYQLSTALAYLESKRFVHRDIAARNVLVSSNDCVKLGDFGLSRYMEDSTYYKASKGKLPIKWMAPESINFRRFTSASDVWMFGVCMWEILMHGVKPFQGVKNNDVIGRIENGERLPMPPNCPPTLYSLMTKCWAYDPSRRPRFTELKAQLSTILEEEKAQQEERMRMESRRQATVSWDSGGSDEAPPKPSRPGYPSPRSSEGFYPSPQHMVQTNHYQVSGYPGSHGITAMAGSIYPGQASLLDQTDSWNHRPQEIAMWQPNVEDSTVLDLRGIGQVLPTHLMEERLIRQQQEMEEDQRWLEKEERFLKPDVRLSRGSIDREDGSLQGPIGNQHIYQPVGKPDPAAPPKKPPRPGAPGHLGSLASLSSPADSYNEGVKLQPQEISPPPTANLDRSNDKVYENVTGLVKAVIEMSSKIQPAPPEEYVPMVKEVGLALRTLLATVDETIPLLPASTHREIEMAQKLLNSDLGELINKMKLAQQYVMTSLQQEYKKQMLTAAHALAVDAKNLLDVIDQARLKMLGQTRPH
Chain of MAPKAPK2 (P49137 whole entry): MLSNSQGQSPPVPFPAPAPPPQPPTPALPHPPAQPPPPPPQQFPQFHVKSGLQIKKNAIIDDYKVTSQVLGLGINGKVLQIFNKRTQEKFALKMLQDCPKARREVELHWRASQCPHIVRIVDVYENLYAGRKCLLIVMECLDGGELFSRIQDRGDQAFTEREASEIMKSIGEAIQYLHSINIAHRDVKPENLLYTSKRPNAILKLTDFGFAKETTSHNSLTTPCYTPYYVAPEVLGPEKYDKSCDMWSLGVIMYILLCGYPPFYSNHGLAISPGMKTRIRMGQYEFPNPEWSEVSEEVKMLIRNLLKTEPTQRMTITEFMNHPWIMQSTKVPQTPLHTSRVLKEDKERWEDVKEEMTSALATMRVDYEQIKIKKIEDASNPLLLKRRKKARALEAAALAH

Structure (SMILES): C=C1CCCCCCCCCC(CO)C1=O (stereo not drawn) [EP009, 2-(Hydroxymethyl)-12-methylenecyclododecanone]
- Kinase Activity (% of Control) [1]: 100 % of Control
- Kinase Activity (% of Control) [2]: 100 % of Control
- Kinase Activity (% of Control) [3]: 100 % of Control
- Kinase Activity (% of Control) [4]: 100 % of Control
- inhibition of Polo-like kinase 4 (PLK4) [5]: 47 % inhibition
- Kinase Activity (% of Control) ([5]; PLK4): 53 % of Control
- Kinase Activity (% of Control) [6]: 73 % of Control
- Kinase Activity (% of Control) [7]: 98 % of Control
- Kinase Activity (% of Control) [8]: 69 % of Control
- Kinase Activity (% of Control) [9]: 100 % of Control
- Kinase Activity (% of Control) [10]: 100 % of Control
- effect on normal human naïve PBMC viability [11]: no detectable loss of cell viability
